Assay results reported in US10980769B2, “Tiglien-3-one derivatives” (QBIOTICS PTY LTD, priority 2005, dated 2021).
“Also recorded” adds a separate entry of the source.

Experiments:
Haemonchus contortus = experiment: NemaTOX (Ne) anthelmintic larval development bioassay
Procedure: NemaTOX (alternatively referred to herein as Ne) is an anthelmintic bioassay, applicable to all parasitic nematodes with free-living life cycle stages, and can be used as a screen to detect activity and define the species spectrum of compounds against parasitic nematodes and examine the impact of pre-existing resistance to other anthelmintic classes on potency. Haemonchus contortus was utilised for this assay.
The effect on larval development was determined in this assay by the method described by Gill et al. (1995) Int. J. Parasitol. 25: 463-470. Briefly, in this assay nematode eggs were applied to the surface of an agar matrix containing the test sample and allowed to develop through to the L3, infective stage (6 days). At this time the stage of larval development reached and any unusual features (deformity, paralysis, toxicity) were noted by microscopic examination.

Trichophyton rubrum = experiment: MycoTOX (Tr) antifungal bioassay; assay type: cell-based
Procedure: MycoTOX (alternatively referred to herein as Tr) is a non-chromogenic bioassay used to detect activity against filamentous fungal pathogens of plants and animals. The bioassay features a solid phase agar base into which the test compound has been incorporated. As the growth patterns of filamentous fungi are readily apparent on the agar surface the extent of mycelial growth, sporulation (if relevant to the species under investigation) and colour changes with maturation are measured.
MycoTOX, involves a fungus (spore suspension or mycelial fragments) being applied to the surface of an agar matrix containing the test chemical and allowed to grow for a period of up to a week (depending on species). The assay is monitored at two discrete times to identify key development phases in the life cycle (for example mycelial growth and extent of sporulation) and the active wells noted. The monitoring times are dependent on the fungal species under investigation.
The MycoTOX assays were carried out using Trichophyton rubrum. The MycoTOX test is alternatively referred to as Tr to indicate the use of Trichophyton rubrum.

D04 melanoma = experiment: Growth inhibition of cultured cells; assay type: cell-based; conditions: human melanoma DO4
Procedure: (§1) Briefly, a range of tumour cells including mouse melanoma, human melanoma, mouse squamous cell carcinoma, human breast, human colon, human leukemia and human lung and normal human cells including normal human fibroblasts were seeded at 2-5,000 per microtitre well (96-well plate) in 10% FCS-RPMI 1640 culture medium, treated, and allowed to grow until the controls were nearly confluent (5-6 days). The wells were then washed twice with PBS, fix with ethanol for a minimum of 5 minutes and washed with water. SRB solution (50 μL of 0.4% in 1% acetic acid) was added and left at room temperature for a minimum of 15 minutes. The plate was washed rapidly with tap water and then twice with 1% acetic acid. After addition of 100 μL/well of 10 mM Tris base (unbuffered, pH>9), plates were left for a minimum of 5 minutes, then the absorbance was read at 564 nm on the ELISA reader, with a 3 second prior shaking. After subtraction of a blank (wells with no cells, absorbance typically about 0.04), growth inhibition was calculated as % of the untreated control and plotted against dose.
(§2) Briefly, a suspension of a range of tumour cells including mouse melanoma, human melanoma, mouse squamous cell carcinoma, human breast, human colon, human leukemia and human lung and normal human cells including normal human fibroblasts were seeded into round-bottom microtitre plates in 10% FCS-RPMI 1640 culture medium, treated and allowed to grow for 5-6 days. To measure cell growth, 20 μL of a combined MTS/PMS solution (Promega Cell ProliferationAssay Kit Cat #G5430) was added to each well of the 96 well assay plate. After 1-4 hours the plates were placed in the ELISA plate reader and the absorbance read at 490 nm. After subtraction of a blank (wells with no cells, absorbance typically about 0.4), growth inhibition was calculated as % of the untreated control and plotted against dose.
(§3) For growth inhibition assays, cells (2000-5000/well) were seeded in 96-well plates in duplicate, treated with drug next day and allowed to grow for a further 5-6 days. The plates were then washed in PBS (phosphate buffered saline, pH 7.2), fixed with ethanol and stained by addition of 50 μL 0.4% SRB (sulforhodamine) in 1% acetic acid. The plate was left at room temperature for a minimum of 15 minutes, then washed rapidly with tap water and then twice with 1% acetic acid. After addition of 100 μL/well of 10 mM Tris base (unbuffered, pH>9), plates were left for a minimum of 5 minutes, then the absorbance was read at 564 nm on the ELISA reader, with a 3 second prior shaking. After subtraction of a blank (wells with no cells, typically about 0.04), growth inhibition was calculated as % of the untreated control and plotted against dose.

HOP62 lung = experiment: Growth inhibition of cultured cells; assay type: cell-based; conditions: human lung H0P62
Procedure: as §1, §2, §3

human breast MCF-7 = experiment: Growth inhibition of cultured cells; assay type: cell-based; conditions: human breast CF-7
Procedure: as §1, §2, §3

human colon Colo205 = experiment: Growth inhibition of cultured cells; assay type: cell-based
Procedure: as §1, §2, §3

human leukemia K562 = experiment: Growth inhibition of cultured cells; assay type: cell-based
Procedure: as §1, §2, §3

human leukemia U937 = experiment: Growth inhibition of cultured cells; assay type: cell-based
Procedure: as §1, §2, §3

human lung A549 = experiment: Growth inhibition of cultured cells; assay type: cell-based
Procedure: as §1, §2, §3

human melanoma MM127 = experiment: Growth inhibition of cultured cells; assay type: cell-based
Procedure: as §1, §2, §3

human melanoma MM96L = experiment: Growth inhibition of cultured cells; assay type: cell-based
Procedure: as §1, §2, §3

[1] = test system: normal human fibroblasts (NFF); experiment: Growth inhibition of cultured cells; assay type: cell-based
Procedure: as §1, §2, §3

MCF-7 = experiment: Cell scattering of cultured cells; assay type: cell-based, human
[2] = test system: K562 leukemia, MCF-7 breast cancer, Colo-205 colon cancer and D04 and SKMel-5 melanoma; experiment: In vitro growth inhibition profile, sensitive versus other cell lines; assay type: cell-based, human
Procedure: In addition, scattering of MCF-7 and HT-29 colon tumour cells was observed, typical of PKC activators. […] Additionally, given their similarity in structure, EBI-47, EBI-59 and EBI-61 are also considered to be protein kinase C activators.
as §3, with “dose. […]” for “dose.”

Stability = assay type: physicochemical
From the text: This instability was observed upon nitrogen evaporation but not while in acetonitrile/water solution at room temperature or on vacuum evaporation. To avoid decomposition the equivalent four bands of active metabolites from the second preparative HPLC were individually back extracted in the ethyl acetate and evaporated under vacuum. Analytical HPLC of these samples confirmed minimal decomposition.
[…] The structure has no readily reactive groups which might otherwise confer instability.

normal skin = experiment: Inflammatory response of skin; conditions: in vivo

Compound: C/C=C(\C)C(=O)OC1C(C)C2(O)C(C3OC3(CO)C(O)C3(O)C(=O)C(C)=CC32)C2C(C)(C)C12OC(=O)C(C)CC (stereo not shown) [EBI-46, 12-tigloyl-13-(2-methylbutanoyl)-6,7-epoxy-4,5,9,12,13,20-hexahydroxy-1-tiglian-3-one]
- Ne Titre (Haemonchus contortus): 2
- Ne LD99 (Haemonchus contortus; Table 6a, last well with activity, real value may be lower): 31 pg/mL
- Tr Titre (Trichophyton rubrum): 0
- Concentration of EBI-46 at which growth inhibition was observed (D04 melanoma): <100 ng/mL
- Concentration of EBI-46 at which growth inhibition was observed (HOP62 lung): <100 ng/mL
- Concentration of EBI-46 at which growth inhibition was observed (human breast MCF-7): <100 ng/mL
- Concentration of EBI-46 at which growth inhibition was observed (human colon Colo205): <100 ng/mL
- Concentration of EBI-46 at which growth inhibition was observed (human leukemia K562): <100 ng/mL
- Concentration of EBI-46 at which growth inhibition was observed (human leukemia U937): <100 ng/mL
- Concentration of EBI-46 at which growth inhibition was observed (human lung A549): <100 ng/mL
- Concentration of EBI-46 at which growth inhibition was observed (human melanoma MM127): <100 ng/mL
- Concentration of EBI-46 at which growth inhibition was observed (human melanoma MM96L): =/<2 μg/mL
- Concentration of EBI-46 at which growth inhibition was observed [1]: None observed at 10 μg/mL
- scattering of MCF-7 cells (MCF-7): cell scattering
- growth-inhibiting doses in sensitive cell lines lower than for other human tumour cell lines and normal human fibroblasts [2]: approximately 100 fold
- stability of solution (Stability; 25% propylene glycol-saline at 4° C.): stable for weeks
- stability by HPLC (Stability; PEG 400 containing 10% ethanol held at 37° C.): confirmed
- stability of solutions (Stability; in ethanol, 4° C. for 4 weeks): retain bioactivity
- effect on skin (normal skin): can cause inflammation of skin; also recorded: causes an inflammatory response in normal skin
